The values that follow come from PubChem BioAssay (NCI).

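Following 48 hours of exposure in 96-well plates, responses at five concentrations were used to interpolate endpoints linearly. The concentration for full growth arrest is given as TGI.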 A value given as a limit tells only on which side of the number the result lay.

Some test systems named below: ACHN renal; CCRF-CEM leukemia; HL-60(TB) leukemia; HOP-62 NSCLC; IGROV1 ovarian; NCI-H23 lung; NCI-H522 lung; OVCAR-3 ovarian; RXF 393 renal; U251 CNS.
What all share (assay): NCI-60 cell line screen, 48 h

Take `Cc1ccc(N=Nc2c(O)ccc3cc(S(=O)(=O)O)ccc23)cc1`: the TGI in the assay with ACHN renal, with CCRF-CEM leukemia, with HL-60(TB) leukemia, in the assay on HOP-62 NSCLC, in the assay with IGROV1 ovarian and in the assay on NCI-H23 lung was > 100 µM each time. The TGI in the assay on NCI-H522 lung, in the assay with OVCAR-3 ovarian, with RXF 393 renal and with U251 CNS was > 100 µM throughout.
In the case of `N/C(=N\Nc1ccc(Cl)cc1)c1cnccn1`, the TGI in the assay with ACHN renal, in the assay on CCRF-CEM leukemia, in the assay with HL-60(TB) leukemia, in the assay on HOP-62 NSCLC, in the assay on IGROV1 ovarian and with NCI-H23 lung was > 100 µM in each case. For the same compound, the TGI with NCI-H522 lung, with OVCAR-3 ovarian, with RXF 393 renal and in the assay on U251 CNS was > 100 µM in each case.
As to `O=C(OC1CN2CCC1CC2)N(c1ccccc1)c1ccccc1` (stereo not given), the TGI with ACHN renal, with CCRF-CEM leukemia, with HL-60(TB) leukemia, with HOP-62 NSCLC, with IGROV1 ovarian and in the assay on NCI-H23 lung was > 100 µM each time. Besides, the TGI in the assay with NCI-H522 lung, with OVCAR-3 ovarian, in the assay on RXF 393 renal and in the assay with U251 CNS was > 100 µM in each case.
As to `Nn1c(=O)[nH]c2ncn(Cc3ccccc3)c2c1=O`, the TGI in the assay on ACHN renal, in the assay with CCRF-CEM leukemia, in the assay on HL-60(TB) leukemia, with HOP-62 NSCLC, in the assay on IGROV1 ovarian and in the assay with NCI-H23 lung was > 100 µM throughout. Moreover, the TGI in the assay on NCI-H522 lung, in the assay on OVCAR-3 ovarian, with RXF 393 renal and in the assay with U251 CNS was > 100 µM throughout.
Take `CN1CCc2c(sc3ncn(Nc4ccc(Cl)cc4)c(=N)c23)C1`: the TGI in the assay with ACHN renal, in the assay on CCRF-CEM leukemia, with HL-60(TB) leukemia, with HOP-62 NSCLC, in the assay with IGROV1 ovarian and in the assay on NCI-H23 lung was > 100 µM in each case. Further, the TGI with NCI-H522 lung, with OVCAR-3 ovarian, in the assay on RXF 393 renal and with U251 CNS was > 100 µM throughout.
For the compound `Cn1c2ccccc2c2cc(N3CCCC3)c3c(c21)C(=O)N(c1ccccc1)C3=O`, the TGI with ACHN renal, in the assay with CCRF-CEM leukemia, in the assay on HL-60(TB) leukemia, in the assay on HOP-62 NSCLC, in the assay with IGROV1 ovarian and in the assay with NCI-H23 lung was > 100 µM in each case. Moreover, the TGI is > 100 µM in the assay on NCI-H522 lung, > 100 µM in the assay with OVCAR-3 ovarian, 91.2 µM with RXF 393 renal and > 100 µM in the assay on U251 CNS.
`COc1cccc2cc(C(=O)Nc3ccccc3)c(=N)oc12`: the TGI with ACHN renal, in the assay with CCRF-CEM leukemia, in the assay with HL-60(TB) leukemia, in the assay with HOP-62 NSCLC, in the assay on IGROV1 ovarian and with NCI-H23 lung was > 100 µM throughout. Also, the TGI with NCI-H522 lung, in the assay with OVCAR-3 ovarian, in the assay with RXF 393 renal and with U251 CNS was > 100 µM in each case.
For the compound `O=[N+]([O-])c1cc(F)ccc1S(=O)(=O)c1ccccc1`, the TGI in the assay on ACHN renal, in the assay on CCRF-CEM leukemia, in the assay with HL-60(TB) leukemia, in the assay with HOP-62 NSCLC, in the assay with IGROV1 ovarian and with NCI-H23 lung was > 10 µM throughout. The TGI in the assay with NCI-H522 lung is 5.34 µM; in the assay with OVCAR-3 ovarian it was > 10 µM; in the assay with RXF 393 renal it was > 10 µM; with U251 CNS, > 10 µM.
On to `O=c1[nH]c2nccn2c2c1SCCN2`, for which the TGI in the assay with ACHN renal, in the assay with CCRF-CEM leukemia, in the assay with HL-60(TB) leukemia, in the assay on HOP-62 NSCLC, in the assay with IGROV1 ovarian and in the assay with NCI-H23 lung was > 100 µM each time. The TGI in the assay with NCI-H522 lung, in the assay on OVCAR-3 ovarian, in the assay on RXF 393 renal and in the assay with U251 CNS was > 100 µM in each case.
As to `COc1ccc2c(c1)NC1(CCN(CCCC(=O)c3ccc(F)cc3)CC1)N=N2`, the TGI in the assay with ACHN renal was > 100 µM; in the assay on CCRF-CEM leukemia, 58.5 µM; in the assay on HL-60(TB) leukemia, 32.8 µM; with HOP-62 NSCLC, 60.3 µM; in the assay with IGROV1 ovarian it was 64 µM; in the assay with NCI-H23 lung, 97.7 µM. For the same compound, the TGI in the assay with NCI-H522 lung worked out at 33.9 µM; in the assay with OVCAR-3 ovarian, 53.5 µM; with RXF 393 renal, 55.1 µM; in the assay with U251 CNS, 48.6 µM.
With `COC(=O)c1c2c(cc3c1CC1(Cc4cc5c(c(C(C)=O)c4C1)CCCC5)C3)CCCC2` (stereo not given), the TGI is > 100 µM with ACHN renal; 88.1 µM in the assay with CCRF-CEM leukemia; 46.3 µM in the assay on HL-60(TB) leukemia; > 100 µM in the assay with HOP-62 NSCLC; > 100 µM in the assay with IGROV1 ovarian; > 100 µM in the assay with NCI-H23 lung. The TGI in the assay on NCI-H522 lung, in the assay on OVCAR-3 ovarian, in the assay with RXF 393 renal and with U251 CNS was > 100 µM in each case.
Turning to `CCCCc1ccc(Nc2nc(Cl)c3ccn(C4CC(Oc5ccc(C)cc5)C(COc5ccc(C)cc5)O4)c3n2)cc1` (stereo not given), the TGI in the assay on ACHN renal was 31.4 µM; in the assay with CCRF-CEM leukemia, > 46.4 µM; in the assay on HL-60(TB) leukemia, > 46.4 µM; with HOP-62 NSCLC, > 100 µM; in the assay on IGROV1 ovarian, 29.5 µM; in the assay with NCI-H23 lung, 30.8 µM. Further, the TGI is 30.7 µM in the assay with NCI-H522 lung, > 100 µM in the assay on OVCAR-3 ovarian, > 46.4 µM in the assay with RXF 393 renal and > 46.4 µM in the assay on U251 CNS.
